Measured values reported in DBAASP.
In brackets after ≈: the same amount, converted by molar mass. Several values for one entry are separate records, joined by “and”; a condition that tells them apart may be missing. Equal values may be shown once.

What was measured:
Assay in all cases: ≥ marks a high value that may be exact or a test limit, other limits are often not marked, values filed in µg/mL are converted to µM
[1] = system: Bacillus anthracis UM23-CL2
[2] = system: Burkholderia cepacia J2540
[3] = system: Acinetobacter baumannii KCTC 2508
[4] = system: Staphylococcus aureus ATCC 25923
[5] = system: Pseudomonas aeruginosa ATCC 27853
[6] = system: Klebsiella pneumoniae KCTC 2208
[7] = system: Klebsiella pneumoniae
[8] = system: Escherichia coli ATCC 25922
[9] = system: Micrococcus luteus ATCC 49732
[10] = system: Vibrio anguillarum ATCC 43308
[11] = system: Latilactobacillus sakei NCDO 2714
[12] = system: Lactiplantibacillus plantarum 965
[13] = system: Escherichia coli HB101
[14] = system: Escherichia coli SBS 363
[15] = system: Corynebacterium stationis CIP 101282
[16] = system: Staphylococcus aureus SG511
[17] = system: Bacillus megaterium CIP 6620
[18] = system: Staphylococcus aureus CIP 103428
[19] = system: Micrococcus luteus CIP 5345
[20] = system: Staphylococcus haemolyticus
[21] = system: Microbacterium maritypicum CIP 105733T
[22] = system: Vibrio nigripulchritudo CIP 103195
[23] = system: Vibrio splendidus CIP 107715
[24] = system: Bacillus cereus
[25] = system: Aeromonas hydrophila
[26] = system: Bacillus megaterium
[27] = system: Kluyvera cryocrescens
[28] = system: Proteus sp.
[29] = system: Pseudomonas fluorescens
[30] = system: Salmonella enterica subsp. enterica serovar Typhi
[31] = system: Shigella sp.
[32] = system: Micrococcus luteus
[33] = system: Lelliottia amnigena
[34] = system: Microbacterium oxydans
[35] = system: Burkholderia stabilis
[36] = system: Salmonella enterica subsp. enterica serovar Gallinarum
[37] = system: Sporosarcina ureae
[38] = system: Staphylococcus aureus
[39] = system: Escherichia coli

CC[C@H](C)[C@H](NC(=O)CN)C(=O)NCC(=O)N[C@@H](CCCCN)C(=O)N[C@@H](Cc1ccccc1)C(=O)N[C@@H](CC(C)C)C(=O)N[C@@H](Cc1cnc[nH]1)C(=O)N[C@@H](CO)C(=O)N[C@@H](C)C(=O)N[C@@H](CCCCN)C(=O)N[C@@H](CCCCN)C(=O)N[C@@H](Cc1ccccc1)C(=O)N[C@@H](Cc1ccccc1)C(=O)N[C@@H](CCCCN)C(=O)N[C@@H](CCCN=C(N)N)C(=O)N[C@H](C(=O)N[C@H](C(=O)N[C@@H](CCC(N)=O)C(=O)N[C@@H](CCCN=C(N)N)C(=O)N[C@H](C(=O)N[C@@H](CCCCN)C(=O)N[C@@H](CC(=O)O)C(=O)N[C@@H](Cc1ccccc1)C(=O)N[C@@H](CC(C)C)C(=O)N[C@@H](CCCN=C(N)N)C(=O)O)[C@@H](C)CC)C(C)C)[C@@H](C)CC [GIGKFLHSAKKFFKRIVQRIKDFLR]
MIC [1]: ≥ 82.4 µM
MIC [2]: ≥ 82.4 µM

CC[C@H](C)[C@H](NC(=O)[C@@H](NC(=O)[C@H](Cc1cnc[nH]1)NC(=O)[C@H](CCCN=C(N)N)NC(=O)[C@H](C)NC(=O)[C@H](CCCN=C(N)N)NC(=O)[C@H](CC(C)C)NC(=O)[C@H](CO)NC(=O)[C@H](C)NC(=O)[C@H](CS)NC(=O)[C@H](CC(C)C)NC(=O)[C@@H](N)CC(N)=O)[C@@H](C)O)C(=O)N1CCC[C@H]1C(=O)N[C@@H](CCC(N)=O)C(=O)N[C@@H](CS)C(=O)N[C@@H](CCCCN)C(=O)N[C@@H](CCCCN)C(=O)N[C@@H](Cc1ccccc1)C(=O)NCC(=O)N[C@@H](CCCN=C(N)N)C(=O)N[C@@H](CCCN=C(N)N)C(=O)O [NLCASLRARHTIPQCKKFGRR]
MIC [3]: 16 µM (≈ 39.3 µg/mL)
MIC [4]: 2.57 µM (≈ 6.3 µg/mL)
MIC [5]: 32 µM (≈ 78.6 µg/mL)
MIC [6]: 16 µM (≈ 39.3 µg/mL)
MIC [7]: > 32 µM and 16 µM
MIC [8]: 2.57 µM (≈ 6.3 µg/mL)
MIC [9]: 2.57 µM (≈ 6.3 µg/mL)
MIC [10]: 5.09 µM (≈ 12.5 µg/mL)

CC[C@H](C)[C@H](NC(=O)[C@H](C)NC(=O)[C@@H](NC(=O)[C@H](C)NC(=O)CN)[C@@H](C)O)C(=O)N[C@@H](CCCCN)C(=O)N[C@@H](CCC(N)=O)C(=O)N[C@H](C(=O)N[C@@H](CCCCN)C(=O)N[C@@H](CCCCN)C(=O)N[C@@H](CC(C)C)C(=O)N[C@@H](Cc1ccccc1)C(=O)N[C@@H](CCCCN)C(=O)N[C@@H](CCCCN)C(=O)N[C@@H](Cc1c[nH]c2ccccc12)C(=O)NCC(=O)N[C@@H](Cc1c[nH]c2ccccc12)C(=O)O)C(C)C [GATAIKQVKKLFKKWGW]
MIC [11]: 0.015 µM (≈ 0.0298 µg/mL)
MIC [12]: 0.4 µM (≈ 0.796 µg/mL)

CC[C@H](C)[C@H](NC(=O)[C@H](CCCN=C(N)N)NC(=O)[C@@H](N)CCCN=C(N)N)C(=O)N[C@@H](CCCN=C(N)N)C(=O)N1CCC[C@H]1C(=O)N[C@@H](CCCN=C(N)N)C(=O)N1CCC[C@H]1C(=O)N[C@@H](CCCN=C(N)N)C(=O)O [RRIRPRPR]
MIC [8]: > 128 µM
MIC [13]: ≥ 128 µM

CC[C@H](C)[C@H](NC(=O)[C@@H]1CCCN1C(=O)CN)C(=O)N[C@@H](CCCN=C(N)N)C(=O)N[C@@H](CCCN=C(N)N)C(=O)N1CCC[C@H]1C(=O)N[C@@H](CCCCN)C(=O)N1CCC[C@H]1C(=O)N[C@@H](CCCN=C(N)N)C(=O)N1CCC[C@H]1C(=O)N[C@@H](CCCN=C(N)N)C(=O)N[C@@H](CCC(N)=O)C(=O)N[C@@H](CCCN=C(N)N)C(=O)N1CCC[C@H]1C(=O)N[C@@H](CCC(=O)O)C(=O)O [GPIRRPKPRPRQRPE]
MIC [14]: ≥ 80 µM
MIC [15]: 20 µM (≈ 36.8 µg/mL)
MIC [16]: 20 µM (≈ 36.8 µg/mL)
MIC [17]: 20 µM (≈ 36.8 µg/mL)
MIC [18]: 20 µM (≈ 36.8 µg/mL)
MIC [19]: ≥ 80 µM
MIC [20]: 20 µM (≈ 36.8 µg/mL)
MIC [21]: 20 µM (≈ 36.8 µg/mL)
MIC [22]: ≥ 40 µM
MIC [23]: ≥ 40 µM

CC[C@H](C)[C@H](NC(=O)[C@H](Cc1cnc[nH]1)NC(=O)[C@H](CC(N)=O)NC(=O)[C@@H](NC(=O)[C@@H](NC(=O)[C@H](CC(C)C)NC(=O)[C@H](CC(=O)O)NC(=O)[C@@H]1CCCN1C(=O)[C@H](CC(C)C)NC(=O)[C@H](CCCCN)NC(=O)[C@H](Cc1c[nH]c2ccccc12)NC(=O)[C@@H](N)CCC(=O)O)[C@@H](C)CC)[C@@H](C)CC)C(=O)N[C@H](C(=O)N[C@@H](CC(C)C)C(=O)N[C@H](C(=O)N[C@@H](CCCN=C(N)N)C(=O)N[C@@H](CCCN=C(N)N)C(=O)N[C@@H](CC(N)=O)C(=O)N[C@H]1CSSC[C@@H](C(=O)NCC(=O)O)NC(=O)[C@H](CCCN=C(N)N)NC(=O)[C@H](Cc2ccc(O)cc2)NC(=O)[C@H](CCCCN)NC(=O)[C@H](Cc2ccccc2)NC1=O)[C@@H](C)O)[C@@H](C)O [EWKLPDLIINHITLTRRNCFKYRCG]
MIC [24]: 0.327 µM (≈ 1.01 µg/mL)
MIC [25]: 1.64 µM (≈ 5.07 µg/mL)
MIC [26]: 3.27 µM (≈ 10.1 µg/mL)
MIC [27]: ≥ 164 µM
MIC [28]: ≥ 164 µM
MIC [29]: ≥ 32.7 µM
MIC [30]: 16.4 µM (≈ 50.7 µg/mL)
MIC [31]: 16.4 µM (≈ 50.7 µg/mL)
MIC [32]: 16.4 µM (≈ 50.7 µg/mL)
MIC [33]: 16.4 µM (≈ 50.7 µg/mL)
MIC [34]: 0.164 µM (≈ 0.507 µg/mL)
MIC [35]: ≥ 164 µM
MIC [36]: 1.64 µM (≈ 5.07 µg/mL)
MIC [37]: ≥ 164 µM
MIC [38]: 164 µM (≈ 507 µg/mL)
MIC [39]: 16.4 µM (≈ 50.7 µg/mL)
